Experimental data taken from patent US4902690A, “Pest controlling compositions” (The General Hospital Corporation, priority 1988, dated 1990).
Values joined by “and” are separate entries in the source; they are usually repeats but may differ in a detail not shown here. Identical values can stand only once.

Tests used:
[1] = tested on: phosphodiesterase enzyme of hornworm nerve cord; experiment: PDE inhibitory activity, hornworm nerve tissue; format: biochemical, tobacco hornworm (Manducca sexta); settings: FIG. 8
Source text: (§1) The ability of any compound (A) to inhibit phosphodiesterase (PDE) activity in broken cell preparations of firefly lantern or in pest tissues can be determined either (1) by measuring the decrease in rate of hydrolysis of an added amount of cyclic AMP by PDE (see Methods Section of Nathanson et al., Mol. Pharmacol. 12:390-398 (1975)), or (2) by measuring the rate of accumulation of one of the breakdown products of cyclic AMP, such as 5'-AMP or adenosine (see method of Filburn et al., Anal. Biochem. 52:505-516 (1973)). Both of these are herein incorporated by reference.
(§2) In this assay (modified slightly from Filburn and Karn (Analyt. Biochem. 52: 505-516 (1973)), the rate of hydrolysis of labeled cyclic AMP to 5'-AMP by PDE is measured by converting the breakdown product (5'-AMP) to adenosine, which can be separated and measured by alumina chromatography. Specifically, tissue from either the firefly lantern or pest is homogenized (10-20 mg/ml) in 6 mM Tris-maleate buffer, pH 7.4. The hydrolysis reaction is run in test tubes containing (in 100 microliters): 80 mM Tris maleate, pH 7.4; 6 mM MgSO4; 10 pmoles tritiated cyclic AMP (2×10^4 to 2×10^5 cpm, depending upon the activity of the enzyme); 20 microliters of tissue homogenate; and various concentrations of the compound to be tested. In those cases in which the compound is insoluble in aqueous solution at pH 7.4, pH can be varied between pH 6.5 and 9.0 for optimization of solubility. In addition, the test compound can be initially solubilized in either 100% methanol or DMSO and diluted to a final concentration of 10% methanol or DMSO in the assay (in which case solvent controls are run in parallel).
The reaction is started by the addition of homogenate, run for 4 min at 37° C., and terminated by boiling for 90 sec. […] The void volume is discarded and the column is then eluted with 2 ml of 0.1N ammonium acetate, pH 4.0, the eluent collected and counted by liquid scintillation spectrometry. […]

[2] = tested on: tobacco hornworms (Manducca sexta); experiment: In vivo leaf test (feeding on sprayed tomato leaves); settings: for relative antifeeding potency: dose sprayed on tomato leaves; for antifeeding activity of the compound by itself: FIGS. 10, 13, 17, Table 8; for activity as synergist of DDCDM: FIGS. 14, 15, 16, 8-phenyl-theophylline 0.1% with 0.1% DDCDM compared with 0.1% IBMX; for effect of adding IBMX on antifeeding / pesticidal activity of the compound: IBMX 0.1%, FIGS. 9, 10, 17, Tables 4, 7, 8, FIG. 9 at 72 hours; for state of the leaf 72 hours after treatment: 0.1% of each compound, FIG. 11
[3] = tested on: adenylate cyclase in firefly lantern; experiment: Direct activation of adenylate cyclase in firefly lantern; format: biochemical, firefly (Photinus pyralis); settings: FIG. 4
Method: The second type of pest controlling compounds (B2) useable in the present compositions are direct stimulators of the pest enzyme adenylate cyclase. These compounds bypass the receptor, and interact with one or another of the associated catalytic or regulatory subunits of adenylate cyclase, thereby stimulating the formation of cyclic AMP. Suitable compounds can be determined from assay of pest adenylate cyclase as described above.
Adenylate cyclase activation by test compounds was measured in test tubes containing (in 0.3 ml) 80 mM Tris-maleate, pH 7.4; 10 mM theophylline; 8 mM MgCl2; 0.1 mM GTP; 0.5 mM ethylene glycol bis (beta-aminoethyl ether)-N,N,N'N'-tetraacetic acid; 2 mM ATP; 0.06 ml of P2 fraction; and the various compounds to be tested. Prior experiments had determined that, under these conditions, octopamine-sensitive adenylate cyclase activity is optimized. Test compounds were initially solubilized (prior to aqueous dilution) in water or (if soluble) in 50% (v/v) methanol. If insoluble in 50% methanol, compounds may be dissolved initially in 100% methanol, or 100% dimethylsulfoxide, or 100% polyethylene glycol. […] Cyclic AMP in the supernatant was measured by protein-binding assay, according to the method of Brown et al., Adv. […] Protein concentration was determined by the method of Lowry et al., Journal of Biological Chemistry 193:265-275 (1951). […]

[4] = tested on: adenylate cyclase, nerve cord of tobacco hornworm larvae; experiment: Direct activation of adenylate cyclase, broken cell preparations of hornworm nerve cord; settings: FIG. 5
[5] = tested on: Firefly phosphodiesterase enzyme; experiment: PDE inhibitory activity, firefly lantern; format: biochemical, firefly (Photinus pyralis); settings: for phosphodiesterase inhibition: FIG. 6
Source text: as §1
Generally, any compound capable of maximally inhibiting PDE activity by at least 50% (Vmax -inhibition) and preferably by at least 80% is preferred. Also, in terms of the concentration of the compound required for such inhibition, this can be quantitated by determining the IC 50-inhibition, i.e., the concentration of the compound required to cause 50% of the maximal inhibitioncaused by the compound at any concentration.
as §2
The reaction is started by the addition of homogenate, run for 4 min at 37° C., and terminated by boiling for 90 sec. The 5'AMP formed is then converted to adenosine by the addition of 20 microliters of an aqueous solution of 0.5 Units/ml of 5'-nucleotidase (Sigma, Grade IV), vortexed, and incubated for 30 minutes at 37° C. The second reaction is stopped by addition of 0.4 ml of 0.1N ammonium acetate, pH 4.0. The entire sample is then applied to a 0.5×8 cm column containing neutral alumina prewashed with 20 ml of 0.1N ammonium acetate, pH 4.0. The void volume is discarded and the column is then eluted with 2 ml of 0.1N ammonium acetate, pH 4.0, the eluent collected and counted by liquid scintillation spectrometry. Activity is cpms above that due to a blank which was initially incubated for 0 seconds in the first reaction.

[6] = tested on: adenylate cyclase in nerve cord of tobacco hornworm; experiment: Octopamine agonist activity, adenylate cyclase in broken cell preparations of insect nerve cord; format: biochemical, tobacco hornworm (Manducca sexta); settings: FIG. 3
Method: In addition to the above method employing the firefly light organ, octopamine-sensitive adenylate cyclase can also be measured in tissue preparations from the nerve cord of any desired particular insect pest, using a modification of the method appearing in Nathanson et al. (Science 180:308-310 (1973)) herein incorporated by reference. […]. […] Otherwise, the procedure is identical to that described above.
[…]. The tissue is homogenized (usually 15 mg/ml) as above in 6 mM Tris maleate, pH 7.4. […]. This is done to cancel out the effects of dopamine and serotonin receptors which are usually present in nerve cord. It assures that the compound (B) tested is affecting only octopamine receptors (known to be present in all insect nerve cords).

[7] = tested on: octopamine-sensitive adenylate cyclase (firefly lantern octopamine receptor); experiment: Octopamine-sensitive adenylate cyclase activation, firefly light organ broken cell preparation; format: biochemical, firefly (Photinus pyralis)
[8] = tested on: Manducca eggs; experiment: Ovacidal test (eggs dipped in drug solutions); format: in vivo, Manducca sexta; settings: IBMX 0.1 g/100 ml alone (C* = no agonist); control without IBMX 80
Method: In some cases, test agents were tested for ovacidal activity by dipping groups of 10-50 Manducca eggs in drug solutions for 60 seconds and then determining the percentage of eggs which produced viable larvae. A compound or synergist with active ovacidal activity was one which decreased the percentage of eggs hatched, relative to control.

[9] = tested on: cyclic AMP content of intact nerve cords of tobacco hornworms; experiment: Cyclic AMP content of intact nerve cords incubated in vitro; format: cell-based, tobacco hornworm (Manducca sexta); settings: 100 micromoles/liter of IBMX, 5 minutes in vitro; without PDE inhibitor 8.9±1.6
[10] = agonist 10^-1 gm/100 ml + PDE Inhibitor IBMX 0.1 g/100 ml
[11] = agonist 10^-1 gm/100 ml, No PDE Inhibitor
[12] = agonist 10^-2 gm/100 ml + PDE Inhibitor IBMX 0.1 g/100 ml
[13] = agonist 10^-2 gm/100 ml, No PDE Inhibitor
[14] = agonist 10^-3 gm/100 ml + PDE Inhibitor IBMX 0.1 g/100 ml
[15] = agonist 10^-3 gm/100 ml, No PDE Inhibitor

Cn1c(=O)c2[nH]c(-c3ccccc3)nc2n(C)c1=O [8-phenyl-theophylline]
inhibition of phosphodiesterase activity (maximal) [1]: ≤ 30% | inhibition of feeding (maximal, even at a high dose) ([2]; FIG. 13): ≤ 35% | relative antifeeding potency ([2]; FIG. 13): shows the least activity | antifeeding activity of the compound by itself [2]: little antifeeding activity | activity as synergist of DDCDM [2]: much less activity as a synergist

C=C[C@@]1(C)CC(=O)[C@]2(O)[C@@]3(C)[C@@H](O)CCC(C)(C)[C@@H]3[C@H](O)[C@H](OC(C)=O)[C@@]2(C)O1 [forskolin]
Ka ratio [3]: 0.22 | Vmax [3]: 100% | Ka ratio [4]: 0.20 | Vmax [4]: about 100% | antifeeding activity of the compound by itself [2]: has antifeeding activity | effect of adding IBMX on antifeeding / pesticidal activity of the compound [2]: enhanced

COc1ccc(C[C@H](N)C(=O)N[C@H]2[C@@H](O)[C@H](n3cnc4c(N(C)C)ncnc43)O[C@@H]2CO)cc1 [puromycin]
Vmax (maximal inhibition of PDE activity) ([5]; FIG. 7): greater than 70% | IC50 ([5]; FIG. 7, read-out: IC50 -inhibition): < 2 mM | activity as synergist of DDCDM [2]: able to synergize the pesticidal activity of DDCDM

Cn1c(=O)c2c(ncn2C)n(C)c1=O [caffeine]
phosphodiesterase inhibition [5]: active as phosphodiesterase inhibitors | activity as synergist of DDCDM [2]: much more powerful in inhibiting leaf feeding than caffeine alone or DDCDM alone

Cc1cc(Cl)ccc1N=CN [DDCDM, di-demethylchlordimeform]
activation of adenylate cyclase in nerve cord [6]: potent activators of adenylate cyclase | state of the leaf 72 hours after treatment [2]: eaten substantial amounts of the leaf | % Leaf Remaining (increase over control) ([2]; DDCDM 0.1 g/100 ml alone): 0% | % Leaf Remaining ([2]; agonist 1 gm/100 ml + PDE Inhibitor IBMX 0.1 g/100 ml): 100% | % Leaf Remaining ([2]; agonist 1 gm/100 ml, No PDE Inhibitor): 100% | % Leaf Remaining [2, 10]: 98% | % Leaf Remaining [2, 11]: 30% | % Leaf Remaining [2, 12]: 85% | % Leaf Remaining [2, 13]: 7% | % Leaf Remaining [2, 14]: 20% | % Leaf Remaining [2, 15]: 5% | Ka ratio ([7]; FIG. 1, formamidines): 4 | Vmax ([7]; FIG. 1, formamidines, % of octopamine): 68%

Cc1cc(Cl)ccc1N=C1NCCN1 [NC 7]
activation of adenylate cyclase in nerve cord [6]: potent activators of adenylate cyclase | effect of adding IBMX on antifeeding / pesticidal activity of the compound [2]: substantial increases in the potency | % Leaf Remaining ([2]; agonist 0.3 (3 × 10^-1) gm/100 ml + PDE Inhibitor IBMX 0.1 g/100 ml): 100% | % Leaf Remaining ([2]; agonist 0.3 (3 × 10^-1) gm/100 ml, No PDE Inhibitor): 80% | % Leaf Remaining [2, 10]: 95% | % Leaf Remaining [2, 11]: 55% | % Leaf Remaining [2, 12]: 85% | % Leaf Remaining [2, 13]: 30% | % Leaf Remaining [2, 14]: 48% | % Leaf Remaining [2, 15]: 23% | Ka^oct /Ka^B ratio ([7]; Table 2, clonidines, N.A. = no activity): 9.8

NCC(O)c1ccc(O)cc1 (racemic) [(±)-p-octopamine]
activation of adenylate cyclase in nerve cord [6]: potent activators of adenylate cyclase | effect of adding IBMX on antifeeding / pesticidal activity of the compound [2]: greatly increases the percent leaf remaining | Vmax (% OCT) ([7]; Table 1, phenylethylamines, maximal activation as % of that by (±)-p-octopamine, N.A. = No Activity): 81 ± 1 % OCT and 100 ± 1 % OCT

CC(C)Cn1c(=O)n(C)c(=O)c2[nH]cnc21 [IBMX, isobutylmethylxanthine]
phosphodiesterase inhibition [5]: more potent inhibitor of the enzyme | pattern of PDE inhibition [1]: quite similar to that in the firefly light organ | state of the leaf 72 hours after treatment [2]: almost entirely consumed | IBMX concentrations at which IBMX itself acted to inhibit feeding ([2]; FIG. 12): 0.4-5 gm/b 100 ml | IBMX concentrations with no effect by itself and no increase of DDCDM activity ([2]; FIG. 12, DDCDM 0.1%): less than 0.001 gm/100 ml | relative antifeeding potency ([2]; FIG. 13): more potent than theophylline | antifeeding activity of the compound by itself [2]: very small inhibitory effect by itself | % Living Larvae [8]: 90% | cyclic AMP content of hornworm nerve cord [9]: 21.4 ± 0.8 pmol/mg
